The record followed here is patent US6069156A, “Indole derivatives as cGMP-PDE inhibitors” (Fujisawa Pharmaceutical Co., Ltd., priority 1995, dated 2000).

Assay [1] relates to FK506-induced nephritis. In words: Prevention of Experimental FK506-induced Nephritis by Cyclic Nucleotide Regulating Drugs (b). Conditions: 20 mg/kg intramuscularly 30 minutes before FK506 10 mg/kg/day, 14 days. The class given is in vivo, male Sprague-Dawley rats. The procedure:
(b) Prevention of Experimental FK506-induced Nephritis by Cyclic Nucleotide Regulating Drugs
FK506 was administered orally to male Sprague-Dawley rats (body weights; 292-329 g) fed with low sodium diet (0.05% Sodium) in a daily dose of 10 mg/kg/day for 14 days. FK506 was provided in a solid dispersion formulation and dissolved in distilled water to a final concentration of 2 mg/ml. Papaverine was dissolved in saline to 5 mg/ml. Dipyridamole (i.v. formulation; 5 mg/ml) was purchased from Dainippon Pharmaceutical Co., Ltd. Papaverine (20 mg/kg) or dipyridamole (20 mg/kg) was administered intramuscularly 30 minutes before FK506 dosing. After the final dosing of FK506, 24-hours urine was collected for urinalysis. Blood was withdrawn from the abdominal aorta under ether anesthesia 24 hours after final dosing of FK506, and plasma was separated for biochemical analysis and plasma renin activity measurements. The kidney was removed from each animal and was fixed with in 10% formalin solution for histological analysis.

The target of assay [2] is T1, cGMP-PDE (Homo sapiens, UniProt O76074).
T1 construct: cGMP-PDE was separated from other isozymes in human platelets; from tissue; host or cells: human platelets
The experiment in a line: cGMP-phosphodiesterase (PDE) Assay (human platelets). The class given is biochemical. How it is done:
cGMP-phosphodiesterase (PDE) Assay
cGMP-PDE was separated from other isozymes in human platelets by a modification of the method of Thompson et. al. (Cyclic Nucleotide Phosphodiesterase (PDE), in Methods of Enzymatic analysis, Vol 4, p127-234, 1984). In enzyme inhibition assays, the test compounds were dissolved in 10% DMSO and then diluted with assay buffer (50 mM Tris-HCl, pH 8.0, 0.1 mM dithiothreitol, 2 mM EGTA and 10 u/ml snake venom), at final concentrations ranging from 10^-10 to 10^-6 M. Assays were performed at 0.1 μM substrate ([^3 H]-cGMP) concentration, at 30° C. for 10 minutes using enzyme dilutions which gave 10-20% hydrolysis of substrate. Each assay was initiated by addition of substrate and terminated by addition of anion exchange resin (Dowex 1-X8, 25 μg/mg) followed by centrifugation for 10 minutes (3000 rpm, at 4° C.). Radioactivity of supernatant (^3 H-GMP) was assayed by liquid scintillation counting.

The test system of assay [3] is aorta (spirally cut strips). In words: Smooth Muscle Relaxant: noradrenaline-contracted rat aorta strips. The arrangement: species or system male Wistar rats. Conditions: contraction by noradrenaline 1 μM, 37° C. How it is done:
The aorta were carefully removed from male Wistar rats, cleaned of fat and extraneous tissue. Spirally cut strips of the aorta were placed in a 25 ml organ bath containing Tyrode solution of the following composition (mM); NaCl, 137; KCl, 2.7; CaCl2, 1.8; NaH2 PO4, 0.4; NaHCO3, 12.0; MgSO4, 1.1; glucose, 5.6. The bath was maintained at 37° C. and bubbled with 95% O2 and 5% CO2. The spirally cut strip was stretched to a resting force of 1.0 g, and the isometric contraction was recorded via a force development transducer on an ink writing recorder. Tissues were equilibrated for 60 minutes before contraction was induced by noradrenaline (NA, 1 μM). The test compounds were cumulatively added to organ bath in increasing concentrations ranging from 10^-8 to 10^-5 M, after maximum stable constriction to NA had been achieved.

For assay [4], the system named is Coronary vasospasm induced with vasopressin. The experiment in a line: Vasopressin Induced-vasospasm Model (ST segment depression). The class given is in vivo, Male Donryu rats. The following applies: 10 mg/kg orally 30 minutes before vasopressin 0.2 iu/kg. How it is done: Vasopressin Induced-vasospasm Model
Male Donryu rats, weighing 160-200 g, were anesthetized intraperitoneally with sodium pentobarbital (60 mg/kg) 15 minutes before intravenous administration of vasopressin, and the femoral vein was cannulated with polyethylene tubing (diameter 0.8 mm). Coronary vasospasm was induced with vasopressin (0.2 iu/kg) dissolved in saline through the cannula in the femoral vein. The each test compound (10 mg/kg) was administered orally 30 minutes before the administration of vasopressin. The standard limb lead II of the electrocardiogram was recorded with an electrocardiograph. The depression of ST segment was measured as the difference in the amplitudes of the ST segment after and just before the administration of vasopressin. The amplitudes of ST segment were measured at intervals of 0.5 minutes for 5 minutes after administration of vasopressin.

Assay [5] has as its system FK506 nephritis. The experiment in a line: FK506 Nephritis Model (a). Type of assay: in vivo, Spontaneously hypertensive rats. Conditions: orally twice a day for two weeks; FK506 18 mg/kg daily for 1 week. How it is done: (a) Spontaneously hypertensive rats weighing 250-300 g were used. FK506 dissolved in olive-oil containing 5% ethanol was given orally to the animals in a daily dose 18 mg/kg for 1 week. After the last dosing of FK506, 24-hours urine was collected for urinalysis. Blood was withdrawn from the abdominal aorta under ether anesthesia 24 hours after the last dosing of FK506, and plasma was separated by centrifugation for biochemical analysis.
The each test compound was dissolved in PEG 400 and given orally by the volume of 1 ml/kg twice a day for two weeks.
(§1) Biochemistry and urinalysis: Urine volume, plasma creatinine, urine creatinine, blood urea nitrogen, plasma sodium, urine sodium, plasma potassium and urine potassium, were measured with an autoanalyzer (TBA-20R Toshiba, OM-6020 Daiichi Kagaku).

Assay [6] concerns Cyclosporin nephritis. The experiment in a line: Cyclosporin Nephritis Model. Type of assay: in vivo, Spontaneously hypertensive rats. The following applies: 3.2 mg/kg orally twice a day for two weeks; cyclosporin 50 mg/kg daily. How it is done: Cyclosporin Nephritis Model
Spontaneously hypertensive rats weighing 250-300 g were used. Cyclosporin dissolved in olive-oil containing 5% ethanol was given orally to the animals in a daily dose 50 mg/kg for 2 weeks. After the last dosing of cyclosporin, 24-hours urine was collected for urinalysis. Blood was withdrawn from the abdominal aorta under ether anesthesia 24 hours after the last dosing of cyclosporin, and plasma was separated by centrifugation for biochemical analysis. The animal were bled to death and kidneys were removed for histopathological examination.
The each test compound (3.2 mg/kg) was dissolved in PEG 400 and given orally by the volume of 1 ml/kg twice a day for two weeks.
as §1
Histopathology: The kidneys were fixed in phosphate-buffered 10% formalin and its paraffin specimens were prepared and these sections were stained with hematoxylin.

For assay [7], the system named is Vascular smooth muscle cells (vSMCs). In words: vSMC Proliferation ([3H]-thymidine, PDGF-stimulated). Conditions: Rattus norvegicus, PDGF 10 ng/ml stimulation. The class given is cell-based, male Wistar rats. How it is done: Vascular smooth muscle cells (vSMCs) were prepared from explants of the thoracic aorta of 10 week old male Wistar rats by a modification of the method of Ross (J. Cell Biol., 50: 172, 1971). They were cultured in DMEM containing 10% fetal calf serum, 1% penicillin G and 1% streptomycin at 37° C. in a 95% air, 5% CO2 humidified atmosphere. vSMCs were seeded in 24 well plates and cultured in the presence of 10% fetal calf serum for 3 days. Cell growth then was arrested by transfer to serum free DMEA. After 24 hours, each test compound or vehicle was added to medium for 1 hour, and then cells were stimulated by PDGF (10 ng/ml). After 24 hours of additional incubation, [^3 H]-thymidine (1 μCi/ml) was added during the final 4 hours of incubation time, and trichloracetic acid insoluble radioactivity was assayed by liquid scintillation counting.

Where [8] appears, read: 0.1 μM [3H]-cGMP, 30° C., 10 minutes, read-out: IC50.

Where two headings read alike, the source gives them in different places.

On to `COc1ccc(Cc2nccc3cc(OC)c(OC)cc23)cc1OC` [Papaverine], for which, in assay [1], the “recovery in a measure of blood urea nitrogen” value is “more than 50%”, the “recovery in a serum creatinine” value is given as “more than 50%” and the “renofunction of FK506 dosed rats” value is listed as “significantly improved renofunction”.
The term IC50 denotes the concentration that inhibits the measured activity by half. On to `CCCc1c(C(=O)C2CCCC2)c2ccc(C(N)=O)cc2n1Cc1ccccc1Cl` [73-(36), 1-(2-Chlorobenzyl)-3-cyclopentanecarbonyl-2-propylindole-6-carboxamide], for which the IC50 in assay [2] and in assay [3] was under 100 nM each time.
As to `CC(C)Cc1c(C(=O)C(C)C)c2ccc(C(N)=O)cc2n1Cc1ccccc1Cl` [Example 12, 1-(2-Chlorobenzyl)-2-isobutyl-3-isobutyrylindole-6-carboxamide], the IC50 in assay [2] and in assay [3] was under 100 nM in each case. The “inhibiting activity (depression of ST segment)” value (“inhibiting activity” below) in assay [4] is on record as “more than 50%”.
Regarding `CCCc1c(C(=O)C(C)C)c2ccc(C(N)=O)cc2n1Cc1ccccc1[N+](=O)[O-]` [37-(7), 3-Isobutyryl-1-(2-nitrobenzyl)-2-propylindole-6-carboxamide], the 50% inhibitory concentration (IC50) in assay [2] and in assay [3] was under 100 nM each time.
For the compound `O=C(O)C1CCN(c2nc(NCc3ccc4c(c3)OCO4)c3cc(Cl)ccc3n2)CC1` [compound (VIII), reference compound], in assay [5], the “recovery in a measure of creatinine clearance (ml/kg/min)” value (“recovery in a measure … (ml/kg/min)” for short) is “more than 45%” and the “recovery in urinary sodium excretion” value is listed as “more than 50%”. Further, in assay [6], the “recovery in a measure of blood urea nitrogen” value is reported as “more than 50%” and the “recovery in a measure … (ml/kg/min)” value is reported as “more than 40%”.
As to `CCCc1c(C(=O)C(C)C)c2ccc(C(N)=O)cc2n1Cc1ccccc1C` [37-(4), 3-Isobutyryl-1-(2-methylbenzyl)-2-propylindole-6-carboxamide], the 50% inhibitory concentration (IC50) in assay [2] and in assay [3] was under 100 nM in each case.
Take `CCCc1c(C(=O)C(C)C)c2ccc(C(N)=O)cc2n1Cc1ccc(F)cc1Cl` [37-(9), 1-(2-Chloro-4-fluorobenzyl)-3-isobutyryl-2-propylindole-6-carboxamide]: the IC50 in assay [2] and in assay [3] was under 100 nM in each case.
Turning to `CCCc1c([N+](=O)[O-])c2ccc(C(=O)OC)cc2n1Cc1ccccc1Cl` [Example 72, methyl 1-(2-chlorobenzyl)-3-nitro-2-propylindole-6-carboxylate], the IC50 in assay [2] (setting [8]) and in assay [3] was under 100 nM each time.
Take `CCc1c(C(=O)C(C)C)c2ccc(C(N)=O)cc2n1Cc1ccccc1Cl` [37-(12), 1-(2-Chlorobenzyl)-2-ethyl-3-isobutyrylindole-6-carboxamide]: the IC50 in assay [2] and in assay [3] was under 100 nM in each case. In assay [4], the “inhibiting activity” value was “more than 50%”.
In assay [2], `CCC(=O)c1c(CC)n(Cc2ccccc2Cl)c2cc(C#N)ccc12` [Example 42, 1-(2-chlorobenzyl)-2-ethyl-3-propionylindole-6-carbonitrile] came in with an IC50 of under 100 nM. In addition, in assay [4], the “inhibiting activity” value is given as “more than 50%”.
For the compound `OCCN(CCO)c1nc(N2CCCCC2)c2nc(N(CCO)CCO)nc(N3CCCCC3)c2n1` [dipyridamole, Dipyridamole], in assay [1], the “recovery in a measure of blood urea nitrogen” value is “more than 50%”, the “recovery in a serum creatinine” value is recorded as “more than 50%” and the “renofunction of FK506 dosed rats” value was “significantly improved renofunction”.
As to `CCCc1c(C(=O)C2CC2)c2ccc(C(N)=O)cc2n1Cc1cc2c(cc1Cl)OCO2` [73-(33), 1-(6-Chloro-3,4-methylenedioxybenzyl)-3-cyclopropanecarbonyl-2-propylindole-6-carboxamide], the IC50 in assay [2] and in assay [3] was under 100 nM throughout.
Consider `NC(=O)c1ccc2c3c(n(Cc4cc5c(cc4Cl)OCO5)c2c1)C(=O)CCC3` [75-(8), 9-(6-Chloro-3,4-methylenedioxybenzyl)-8-oxo-5,6,7,8-tetrahydrocarbazole-2-carboxamide], for which the IC50 in assay [2] (setting [8]) and in assay [3] was under 100 nM each time.
In the case of `CCc1c(C(=O)C(C)C)c2ccc(C#N)cc2n1Cc1ccccc1Cl` [Example 43, 1-(2-Chlorobenzyl)-2-ethyl-3-isobutyrylindole-6-carbonitrile], the IC50 in assay [2] and in assay [3] was under 100 nM throughout. Further, the “inhibiting activity” value in assay [4] was “more than 50%”.
In the case of `CCCc1c(C(C)=O)c2ccc(C(N)=O)cc2n1Cc1ccccc1Cl` [Example 3, 3-acetyl-1-(2-chlorobenzyl)-2-propylindole-6-carboxamide], the IC50 in assay [2] and in assay [7] was under 100 nM throughout. In assay [4], the “inhibiting activity” value is given as “more than 50%”. Also, in assay [6], the “recovery in a measure of blood urea nitrogen” value is reported as “more than 50%”. For the same compound, in assay [6], the “recovery in a measure … (ml/kg/min)” value is given as “more than 40%”.
For the compound `CCCc1nn(C)c2c(=O)[nH]c(-c3cc(S(=O)(=O)N4CCN(C)CC4)ccc3OCC)nc12` [compound (IX), reference compound], in assay [6], the “recovery in a measure of blood urea nitrogen” value is reported as “more than 50%” and the “recovery in a measure … (ml/kg/min)” value is listed as “more than 40%”.
For the compound `CCCc1c(C(=O)c2ccccc2)c2ccc(C(N)=O)cc2n1Cc1ccccc1Cl` [38-(1), 3-Benzoyl-1-(2-chlorobenzyl)-2-propylindole-6-carboxamide], the “inhibiting activity” value in assay [4] is reported as “more than 50%”.
